# Reference: patent US20170266166A1, “Compositions and Methods to Inhibit Estrogen Receptor Beta for the Treatment of Renal Cell Carcinoma” (University of Rochester, priority 2014, published 2017)
# How the values were obtained:
# [1] = system: 786-O cells; assay: RCC cell growth, MTT assay; assay type: cell-based, human; conditions: 10 nM, 786-O (high endogenous ERβ), MTT and colony forming assays
# Procedure: (§1) FIG. 2, comprising FIGS. 2A-2F, depicts the results of experiments comparing ERβ expression in RCC cell lines and estrogen/ERβ effects on RCC cell growth. […] Expression of ERα was not detected in tested RCC cells. ERβ has the highest expression level in 786-O and lowest in A498. Breast cancer cell MCF-7 was used as a positive control. […] The growth rate of 786-O cells (with high endogenous ERβ) is increased in the presence of 17β-estradiol (10 nM) as compared with the control Etoh). […] FIGS. 2D-2E show changes in ERβ expression levels can affect the RCC cell growth. A lentivirus system was used to knock-down ERβ in RCC 786-O cells (by lenti-ERβ-shRNA), or to increase ERβ in A498 cells (by lenti-ERβ cDNA). Cell growth rates were determined by MTT assay.
# (§2) RCC cells were seeded in 24-well plates (5000 cells/200 μl medium per well) and cultured for 0, 2, 4 and 6 days. Cells were harvested and cell number was calculated using MTT agent.
# (§3) To examine the ERβ roles on RCC cell growth, the lentiviral ERβ cDNA and shRNA were used to change the expression of ERβ in 2 RCC cell lines, A498 (low endogenous ERβ) and 786-O (high endogenous ERβ), respectively. 10 nM […] estradiol (E2) was used to activate ERβ and examine the growth changes using MTT assay and colony forming assays. […] Supportively, knocking-down ERβ by ERβ-siRNA in RCC 786-O cells suppressed cell growth, sh-Luciferase as control (FIG. 2D). […]
# [2] = system: A498 cells; assay: RCC cell growth, MTT assay; assay type: cell-based, human; conditions: 10 nM, A498 (little ERβ)
# Procedure: as §1, §2, §3
# [3] = system: 786-O cells; assay: transwell RCC cell migration assay; assay type: cell-based, human; conditions: for cell migration: 10 nM
# [4] = system: A498 cells; assay: transwell RCC cell migration assay; assay type: cell-based, human
# [5] = system: 786-O tumors; assay: anti-estrogen treatment of mice carrying 786-O RCC tumors (IVIS imaging, tumor weight, metastasis); assay type: in vivo; conditions: for mice that developed distal metastasis: ip injection every other day, after 4 weeks of treatments, 3 of the 6 DMSO treated mice developed metastasis; for RCC tumor growth and metastasis (IVIS imaging, tumor weights): mouse RCC model, result in words
# From the text: Results of IVIS imaging, tumor size, and tumor weights are shown and compared.
# The Fe-NTA transformed human renal carcinoma cell lines 7860.sh-ERβ/7860.sh-Luc and A498 hERβ/Vec were directly injected into the renal capsule of nude mice. After anesthesia, the back skin was lifted with a pair of blunt forceps and cut along the midline with a pair of scissors creating an incision approximately an inch in length; the dermis was separated from the underlying body wall on both sides of the incision for bilateral grafting or on one side only (blunt dissection). The animal was placed on its side, and the location of the kidney identified by viewing it through the body wall. A small incision ([…]) was made in the body wall just slightly longer than the long axis of the kidney. The exteriorized kidney was allowed to rest on the body wall. We used a syringe to inject the cells at the cell numbers of 1×10^6, both with matrigel (1:1) under the renal capsule.
# ERβ antagonists, PHTPP and ICI, inhibit RCC cell growth and cell invasion Knockdown of ERβ reduced RCC cells growth and Invasion. It was then investigated whether PHTPP (ERβ selective antagonist) and ICI 182,780 (ICI, anti-estrogen) have therapeutic effects to reduce RCC tumor growth and metastasis in vivo. […] Also, both anti-estrogens have been used to treat mouse breast cancer models. The same doses of PHTPP and ICI were applied in mice carrying 786-O tumors DMSO (mock control), PHTPP and ICI were administrated via intraperitoneal (ip) injection every other day. IVIS imaging was applied to monitor tumor growth and distal metastasis. After 4 weeks of treatments, mice were sacrificed for tumor analysis. […] All the mice had developed RCC by the time they were sacrificed. […] In addition to PHTPP and ICI, tamoxifen was also tested on mouse RCC growth.
# [6] = target: ERβ (Homo sapiens, UniProt Q92731); conditions: 10 μM, previous reports; cited from earlier work
# Sequence of ERβ (Q92731 whole entry): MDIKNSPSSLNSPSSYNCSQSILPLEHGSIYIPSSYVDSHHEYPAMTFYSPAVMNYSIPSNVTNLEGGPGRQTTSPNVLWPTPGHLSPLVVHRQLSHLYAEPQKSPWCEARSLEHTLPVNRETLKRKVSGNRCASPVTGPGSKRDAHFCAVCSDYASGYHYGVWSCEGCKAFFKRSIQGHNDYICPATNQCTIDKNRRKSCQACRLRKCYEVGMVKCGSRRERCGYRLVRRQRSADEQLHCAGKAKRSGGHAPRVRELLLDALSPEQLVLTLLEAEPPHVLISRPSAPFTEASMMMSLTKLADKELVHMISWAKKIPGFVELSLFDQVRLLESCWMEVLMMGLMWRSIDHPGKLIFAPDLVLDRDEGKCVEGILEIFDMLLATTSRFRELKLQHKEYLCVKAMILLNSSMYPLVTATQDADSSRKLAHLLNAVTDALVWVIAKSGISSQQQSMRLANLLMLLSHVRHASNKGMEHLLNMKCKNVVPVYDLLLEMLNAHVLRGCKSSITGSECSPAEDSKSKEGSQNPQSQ
# [7] = system: 786-O cells; assay: transwell matrigel RCC cell invasion assay; assay type: cell-based, human; conditions: 10 μM
# Procedure: (§4) The migration or invasion capability of RCC cells was determined using the transwell assay. In brief, 1×105 (invasion)/2-5×104 (migration) cells were harvested and seeded with serum-free media into the upper chamber with or without coated Matrigel with (BD Corning). The migrated or invaded cells were fixed by 4% paraformaldehyde and stained with 1% toluidine blue. Cell numbers were counted in five randomly chosen microscopic fields (100×) per membrane. When necessary, cells were treated with 10 μM of TGFβR-1 inhibitor (SB525334 Selleckchem) for 48 hr.
# (§5) To further validate the ERβ→TGFβ1→pSMAD3 pathway, an interruption approach was applied by using TGFβR-1 inhibitors (10 μM) for the cell invasion assay in both 786-O and A498 cells (FIG. 5D).
# [8] = system: A498 cells; assay: transwell matrigel RCC cell invasion assay; assay type: cell-based, human; conditions: 10 μM
# Procedure: as §4, §5
# [9] = system: pSMAD3; assay: Western blot after TGFβR-1 inhibitor treatment; assay type: cell-based, human; conditions: after treatment of TGFβR-1 inhibitor, FIG. 5D
# Procedure: FIG. 5E illustrates the experimental setting for treatment of RCC with TGFβR-1 inhibitor and migration. RCC cells were cultured for 48 hr and then treated with 10 μM TGFβR-1 inhibitor for 6 hr. RCC cells were then trypsinized and seeded in the upper transwell (5×10^4/well) for 24 hr to determine the migration rate. […] Quantification of migrated cells was shown on the right panel.
# The expressions of ERs were determined by the Western blot according to the previous study (Hsu et al., Carcinogenesis, 2014, 35:651-61). Rabbit anti-ERβ polyclonal antibody (GTX 110607 GeneTex Corporation), mouse anti-GAPDH monoclonal antibody (Santa Cruz Biotechnology), rabbit anti-TGFB1 polyclonal antibody (Abcam Biotechnology), and mouse anti-SMAD3 monoclonal antibody (Abcam Biotechnology) were all used and all at 1:1,000 dilution in blocking buffer. The immunopositive bands were visualized with an ECL chemiluminescent detection system (Thermo Scientific, Rockford, Ill.), and the images were transferred to the Bio-rad imaging system. The Western analysis was scored positive if the band of interest was present at the expected molecular weight appropriate for each marker protein. All analyses were done in duplicate.
# as §5
# [10] = system: advanced RCC; conditions: 1990's clinical trials; cited from earlier work
# [11] = mice carrying 786-O tumors, ip every other day, 4 weeks
smiles,measurement,setting,value
"C[C@]12CC[C@@H]3c4ccc(O)cc4CC[C@H]3[C@@H]1CC[C@@H]2O [E2, 17β-estradiol]",cell growth,[1],significantly enhanced the cell growth
same,cell growth,[2],little E2 stimulating effect
same,cell migration,[3]; 786-O sh-Luc control cells,could enhance
same,cell migration,[3]; ERβ knockdown 786-O cells (786-O-shERβ),little effect
same,cell migration,"[4]; 10 nM, A498-ERβ cells",further stimulated the migration
"C[C@]12CC[C@@H]3c4ccc(O)cc4C[C@@H](CCCCCCCCC[S+]([O-])CCCC(F)(F)C(F)(F)F)[C@H]3[C@@H]1CC[C@@H]2O (stereo partly drawn) [ICI 182,780, 7α-[9-(4,4,5,5,5-pentafluoropentylsulfinyl)nonyl]estra-1,3,5(10)-triene-3,17β-diol]",body weights versus control,[5]; [11],higher body weights than control
same,mice that developed distal metastasis,[5]; mice carrying 786-O tumors,around 17%
same,"RCC tumor growth and metastasis (IVIS imaging, tumor weights)",[5]; in vivo,inhibit the RCC tumor growth and metastasis
same,signs of toxicity or adverse treatment side effects,"[5]; mouse, in vivo, ip",without any signs of toxicity or adverse treatment side effects
same,estrogen induced ERβ transactivation on EREluciferase reporter activity,[6],effectively inhibit
Oc1ccc(-c2c(-c3ccccc3)nn3c(C(F)(F)F)cc(C(F)(F)F)nc23)cc1 [PHTPP],body weights versus control,[5]; [11],higher body weights than control
same,signs of toxicity or adverse treatment side effects,[5]; [11],without any signs of toxicity or adverse treatment side effects
same,mice that developed distal metastasis,[5]; mice carrying 786-O tumors,around 17%
same,"RCC tumor growth and metastasis (IVIS imaging, tumor weights)",[5]; in vivo,inhibit the RCC tumor growth and metastasis
same,estrogen induced ERβ transactivation on EREluciferase reporter activity,[6],effectively inhibit
Cc1cccc(-c2[nH]c(C(C)(C)C)nc2-c2ccc3nccnc3c2)n1 [TGFβR-1 inhibitor],migration ability,"[3]; 10 μM for 48 hr, 786-O sh-Luc (higher ERβ)",dramatically attenuated
same,migration ability,"[4]; 10 μM for 48 hr, A498 ERβ (higher ERβ)",dramatically attenuated
same,ERβ-enhanced invasion,[7],suppression of ERβ-enhanced invasion
same,ERβ-enhanced invasion,[8],suppression of ERβ-enhanced invasion
same,pSMAD3 level by Western blot,[9],reduced pSMAD3
CC/C(=C(\c1ccccc1)c1ccc(OCCN(C)C)cc1)c1ccccc1 [tamoxifen],inhibition of tumor size compared to the control group,"[5]; RCC in vivo, FIG. 9",about 40%
same,efficacy to inhibit ERβ activity,"[5]; compared to ICI 182,780 and PHTPP, FIG. 9",~40%
same,"RCC tumor growth and metastasis (IVIS imaging, tumor weights)",[5]; in vivo,less effective on inhibiting RCC tumor
same,therapeutic efficacy in advanced RCC,[10],no significant therapeutic efficacy
